Patent publication US20100251435A1, “METHOD FOR GROWING SUGARCANE” (priority 2007, published 2010)

Legend:
Assay type in all cases: in vivo
[1] = system: sugar cane Variety RB 86-7515; experiment: Greenhouse pot test, effect of formulated clothianidin on vigour; settings: carretels; result in words
Method: Greenhouse test with sugarcane buds growing in pots were conducted to study the effect of clothianidin equivalent to an application rate of 200 g ai. ha^−1 on “vigour”, evaluating tillers, plant height, leaf width and culm diameter. This trial was conducted on sugar cane Variety RB 86-7515.
1) carretel with one bud treated with clothianidin (200 g ai. ha^−1) 2) carretel with one bud treated with clothianidin (200 g ai. ha^−1)+15% v/v of polymer 3) stalk with 3 buds untreated 4) carretel with one bud untreated+15% v/v of polymer 5) carretel with one bud untreated 6) stalk with 3 buds treated with clothianidin (200 g ai. ha^−1).
Twenty 1 L pots were filled with 16 L of clay soil, 1.6 L of sand and 8 g of nitrogen, 28 g of phosphorus (P2O5) and 16 g of potassium (K2O). Six carretels of 4 cm length with one bud were planted in each pot (treatments 1, 2, 4 and 5). Two stalks with three buds were planted in each control pot (treatments 3 and 6) to simulate conventional planting. A layer of 3 cm of soil was used to cover the carretels. The carretels of treatments 1 and 2 were treated with 200 g ai.ha^−1 of clothianidin, by dipping the carretels in a slurry for 3 min. The stalks were treated simulating a furrow application at 100 L.ha^−1 of slurry. The pots were maintained with adequate moisture during the test. […]

[2] = system: sugar cane Variety RB 86-7515; experiment: Greenhouse pot test, effect of formulated fipronil on vigour; settings: result in words
Method: Greenhouse test with sugarcane buds growing in pots were conducted to study the effect of fipronil equivalent to an application rate of 200 g. ha^−1 on “vigour”, evaluating tillers, plant height, leaf width and culm diameter on sugar cane Variety RB 86-7515.
Twenty 1 L pots were filled with 16 L of clay soil, 1.6 L of sand and 8 g of nitrogen, 28 g of phosphorus (P2O5) and 16 g of potassium (K2O). Six carretels of 4 cm length with one bud were planted in each pot (treatments 1, 2, 4 and 5). Two stalks with three buds were planted in each control pot (treatments 3 and 6) to simulate conventional planting. A layer of 3 cm of soil was used to cover the carretels. The carretels of treatments 1 and 2 were treated with 200 g ai.ha^−1 of fipronil, by dipping the carretels in the slurry for 3 min, based on the uptake capacity of carretels. The stalks were treated simulating a furrow application at 100 L.ha^−1 of slurry. Experimental design adopted was randomized complete block with four replications. The pots were maintained with adequate moisture during the test. Evaluations of: plant height, leaf width, culm diameter and number of tillers were done at 20, 30 and 42 days after planting.

[3] = system: sugar cane Variety RB 86 7515; experiment: Greenhouse pot test, effect of formulated imidacloprid on vigour; settings: result in words
Excerpt: 1) carretel with one bud treated with Imidacloprid (1200 g. ha^−1) 2) carretel with one bud treated with Imidacloprid (1200 g. ha^−1)+15% v/v of polymer 3) stalk with 3 buds untreated 4) carretel with one bud untreated 5) carretel with one bud untreated+15% v/v of polymer 6) stalk with 3 buds treated with Imidacloprid (1200 g. ha^−1).
Twenty 1 L pots were filled with 16 L of clay soil, 1.6 L of sand and 8 g of nitrogen, 28 g of phosphorus (P2O5) and 16 g of potassium (K2O). Six carretels of 4 cm length with one bud were planted in each pot (treatments 1, 2, 4 and 5). Two stalks with three buds were planted in each control pot (treatments 3 and 6) to simulate conventional planting. A layer of 3 cm of soil was used to cover the carretels. The carretels of treatments 1 and 2 were treated with 1200 g ai.ha^−1 of imidacloprid, by dipping the carretels in the slurry for 3 min, based on the uptake capacity of carretels. The stalks were treated simulating a furrow application at 100 L.ha^−1 of slurry. Experimental design adopted was randomized complete block with four replications. The pots were maintained with adequate moisture during the test. Evaluations of: plant height, leaf width, culm diameter and number of tillers were done at 20, 30 and 42 days after planting.

[4] = system: sugar cane Variety RB 86-7515; experiment: Greenhouse pot test, effect of formulated thiamethoxam on vigour; settings: result in words
Method: This trial was conducted on Variety RB 86-7515.

[5] = system: sugar cane Variety RB 86-7515; experiment: Greenhouse pot test, effect of formulated abamectin on vigour
Method: Greenhouse test with sugarcane buds growing in pots were conducted to study the effect of formulated abamectin regarding “vigour”, tillers, plant height, leaf width and culm diameter on sugar cane Variety RB 86-7515.
1) carretel with one bud treated with abamectin 2) carretel with one bud treated with abamectin+15% v/v of polymer 3) stalk with 3 buds untreated 4) carretel with one bud untreated 5) carretel with one bud untreated+15% v/v of polymer 6) stalk with 3 buds treated with abamectin.
Twenty 1 L pots were filled with 16 L of clay soil, 1.6 L of sand and 8 g of nitrogen, 28 g of phosphorus (P2O5) and 16 g of potassium (K2O). Six carretels of 4 cm length with only one bud were planted in each pot (treatments 1, 2, 4 and 5). Two stalks with three buds were planted in each control pot (treatments 3 and 6) to simulate conventional planting. A layer of 3 cm of soil was used to cover the carretels. The carretels of treatments 1, 2 were treated with 200 ml/ha of abamectin, by dipping the carretels in the slurry for 3 min, based on the uptake capacity of carretels. The stalks were treated simulating a furrow application at 100 L.ha^−1 of slurry. Experimental design adopted was randomized complete block with four replications. The pots were maintained with adequate moisture during the test. Evaluations of: plant height, leaf width, culm diameter and number of tillers were done at 20, 30 and 42 days after planting.

CN/C(=N\[N+](=O)[O-])NCc1cnc(Cl)s1 [Clothianidin, clothianidin]
number of tillers in comparison with the corresponding control experiment (untreated, one-bud) [1]: increased | plant height in comparison with the corresponding control experiment (untreated, one-bud) [1]: slight reduction

N#Cc1nn(-c2c(Cl)cc(C(F)(F)F)cc2Cl)c(N)c1[S+]([O-])C(F)(F)F (stereo not drawn) [Fipronil, fipronil]
height of the resultant plants in comparison with the control [2]: decreased | number of tillers in comparison with the control [2]: increased

O=[N+]([O-])NC1=NCCN1Cc1ccc(Cl)nc1 [Imidacloprid, imidacloprid]
number of tillers in comparison with the control [3]: increase | size of the effect compared with the other active ingredients [3]: less pronounced than with the other active ingredients

CN1COCN(Cc2cnc(Cl)s2)/C1=N\[N+](=O)[O-] [Thiamethoxam, thiamethoxam]
number of tillers in comparison with the corresponding controls ([4]; carretels): increased | plant height in comparison with the corresponding controls ([4]; carretels): reduced | overall "quality" compared with the other treatments ([4]; practical assessment, not apparent from the listed parameters): increase in “quality” greater than the other treatments

abamectin
Tillers ([5]; Carretel with one bud, 100 g ai/ha, dipped in slurry 3 min, 42 days after planting): 14 number | number of tillers in comparison with the control ([5]; result in words): increase | plant height in comparison with the control ([5]; result in words): decrease
